Calls of active or inactive are those of the source. The rule behind the calls is not given here.
What was measured:
[1] = Drug level in human liver microsomes treated with 20 uM of zolpidem preincubated for 15 mins followed by NADPH addition measured after 60 mins by UPLC-MS/MS analysis; format: ADME; details: 1 h
[2] = Displacement of [3H]-flunitrazepam from rat brain GABA-A receptor benzodiazepine site after 20 mins by liquid scintillation counting
Rattus norvegicus [3] = species: Rattus norvegicus; assay: Potency index, ratio of zolpidem Ki to compound Ki for rat brain GABA-A receptor benzodiazepine site
[4] = target: T1, GABA-A receptor; alpha-1/beta-2/gamma-2 (Homo sapiens) (UniProt P14867+P47870+P18507); assay: Positive allosteric modulation of human recombinant GABA-A receptor alpha1beta2gamma2 expressed in HEK293 cells assessed as potentiation of GABA induced chloride currents at 1 uM treated every 60 secs measured for 7 secs by electrophysiological method; format: cell-based
[5] = target: T2, GABA-A receptor; alpha-1/beta-2/gamma-2 (Homo sapiens, UniProt P14867+P18507+P47870); assay: Positive allosteric modulation of human recombinant GABA-A receptor alpha1beta2gamma2 expressed in HEK293 cells assessed as potentiation of GABA induced chloride currents treated every 60 secs measured for 7 secs by electrophysiological method; format: cell-based
T2 sequence (P14867 whole entry): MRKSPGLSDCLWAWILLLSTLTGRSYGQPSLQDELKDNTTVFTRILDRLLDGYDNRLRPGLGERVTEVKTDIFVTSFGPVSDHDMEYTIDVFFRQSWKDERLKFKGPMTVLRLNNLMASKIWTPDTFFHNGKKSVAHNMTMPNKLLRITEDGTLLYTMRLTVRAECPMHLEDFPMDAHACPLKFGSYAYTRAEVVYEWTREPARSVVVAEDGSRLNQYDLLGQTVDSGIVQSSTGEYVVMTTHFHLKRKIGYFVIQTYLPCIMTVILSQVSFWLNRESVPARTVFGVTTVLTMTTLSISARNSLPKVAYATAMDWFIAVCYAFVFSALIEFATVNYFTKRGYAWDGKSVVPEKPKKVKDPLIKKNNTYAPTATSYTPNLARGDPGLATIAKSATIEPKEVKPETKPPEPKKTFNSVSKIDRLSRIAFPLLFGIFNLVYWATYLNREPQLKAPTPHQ
T2 sequence (P47870 whole entry): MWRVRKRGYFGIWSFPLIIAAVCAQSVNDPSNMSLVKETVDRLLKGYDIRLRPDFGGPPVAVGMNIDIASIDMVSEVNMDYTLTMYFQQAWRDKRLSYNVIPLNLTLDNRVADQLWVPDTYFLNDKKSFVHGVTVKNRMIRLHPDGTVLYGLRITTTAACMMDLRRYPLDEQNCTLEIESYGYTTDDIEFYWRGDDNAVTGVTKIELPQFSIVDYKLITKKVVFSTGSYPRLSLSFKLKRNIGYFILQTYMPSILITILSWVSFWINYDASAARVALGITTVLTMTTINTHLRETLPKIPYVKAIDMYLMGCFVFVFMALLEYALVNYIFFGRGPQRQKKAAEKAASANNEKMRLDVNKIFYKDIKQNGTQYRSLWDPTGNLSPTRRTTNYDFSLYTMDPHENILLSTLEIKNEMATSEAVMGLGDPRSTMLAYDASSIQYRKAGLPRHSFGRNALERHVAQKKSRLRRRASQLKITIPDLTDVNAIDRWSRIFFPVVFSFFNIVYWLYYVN
T2 sequence (P18507 whole entry): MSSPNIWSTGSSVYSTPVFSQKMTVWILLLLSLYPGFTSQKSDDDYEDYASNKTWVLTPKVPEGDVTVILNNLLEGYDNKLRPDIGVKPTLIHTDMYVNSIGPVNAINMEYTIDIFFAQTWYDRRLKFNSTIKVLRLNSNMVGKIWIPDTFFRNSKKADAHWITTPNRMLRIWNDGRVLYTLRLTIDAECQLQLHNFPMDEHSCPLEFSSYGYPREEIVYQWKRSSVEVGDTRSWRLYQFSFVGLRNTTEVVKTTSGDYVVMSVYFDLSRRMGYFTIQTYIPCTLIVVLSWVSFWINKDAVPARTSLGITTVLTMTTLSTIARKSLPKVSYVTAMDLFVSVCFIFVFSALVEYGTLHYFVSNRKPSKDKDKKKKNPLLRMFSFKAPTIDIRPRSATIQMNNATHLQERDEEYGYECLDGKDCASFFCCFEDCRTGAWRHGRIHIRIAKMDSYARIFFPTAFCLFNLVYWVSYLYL

[6] = target: T1, GABA-A receptor; alpha-1/beta-2/gamma-2 (Homo sapiens); assay: Positive allosteric modulation of human recombinant GABA-A receptor alpha1beta2gamma2 expressed in HEK293 cells assessed as potentiation of GABA induced chloride currents at 1 uM treated every 60 secs measured for 7 secs by electrophysiological method relative to GABA; format: cell-based
[7] = Drug metabolism in human liver microsomes assessed as 2-(6-fluoro-2-(4-(hydroxymethyl)phenyl)imidazo[1,2-a]pyridin-3-yl)-N,N-dimethylacetamide formation at 20 uM preincubated for 15 mins followed by NADPH addition measured after 60 mins by UPLC-MS/MS analysis; format: ADME; details: 1 h
HepG2 [8] = assay: (§1) Hepatotoxicity in human HepG2 cells assessed as decrease in cell viability after 24 hrs by PrestoBlue assay; format: toxicity, cell-based; details: hepg2, 24 h
HepG2 [9] = assay: (§2) Hepatotoxicity in human HepG2 cells assessed as decrease in cell viability after 48 hrs by PrestoBlue assay; format: toxicity, cell-based; details: hepg2, 48 h
HepG2 [10] = assay: Hepatotoxicity in human HepG2 cells assessed as cell membrane damage after 24 hrs by luminescence assay; format: toxicity, cell-based; details: hepg2, 24 h
HepG2 [11] = assay: Hepatotoxicity in human HepG2 cells assessed as cell membrane damage after 48 hrs by luminescence assay; format: toxicity, cell-based; details: hepg2, 48 h
HepG2 [12] = assay: (§3) Hepatotoxicity in human HepG2 cells assessed as intracellular ATP level after 24 hrs by luminescence based ATP detection assay; format: toxicity, cell-based; details: hepg2, 24 h
HepG2 [13] = assay: (§4) Hepatotoxicity in human HepG2 cells assessed as intracellular ATP level after 48 hrs by luminescence based ATP detection assay; format: toxicity, cell-based; details: hepg2, 48 h
HepG2 [14] = assay: (§5) Hepatotoxicity in human HepG2 cells assessed as loss of mitochondrial membrane potential after 24 hrs by JC-1 staining based fluorescence assay; format: toxicity, cell-based; details: hepg2, 24 h
[15] = Drug level in human liver microsomes treated with 20 uM of 2-(6-fluoro-2-p-tolylimidazo[1,2-a]pyridin-3-yl)-N,N-dimethylethanamide preincubated for 15 mins followed by NADPH addition measured after 60 mins by UPLC-MS/MS analysis; format: ADME; details: 1 h
[16] = as §1; format: toxicity, cell-based; details: HepG2 cells
[17] = as §2; format: toxicity, cell-based; details: HepG2 cells
[18] = as §3; format: toxicity, cell-based; details: HepG2 cells
[19] = as §4; format: toxicity, cell-based; details: HepG2 cells
[20] = as §5; format: toxicity, cell-based; details: HepG2 cells
Rattus norvegicus [21] = assay: Toxicity in rat assessed as myorelaxant effects at 1 mg/kg, ip administered 60 mins; format: organism-based; details: in vivo, 1 h
Rattus norvegicus [22] = assay: Toxicity in rat assessed as effect on behavioral changes at 1 mg/kg, ip administered 60 mins; format: organism-based; details: in vivo, 1 h
Rattus norvegicus [23] = assay: Toxicity in rat assessed as cataleptogenic effects at 1 mg/kg, ip administered 60 mins; format: organism-based; details: in vivo, 1 h
Rattus norvegicus [24] = assay: Antipsychotic activity in ip dosed rat assessed as reversal of amphetamine-induced hyperlocomotion administered 30 mins before administration of amphetamine measured for 15 mins by open field test; format: functional
[25] = Metabolic stability in human liver microsomes at 20 uM preincubated for 15 mins followed by NADPH addition measured after 60 mins by UPLC-MS/MS analysis; format: ADME; details: 1 h
Rattus norvegicus [26] = assay: Antipsychotic activity in rat assessed as reversal of amphetamine-induced hyperlocomotion at 3 mg/kg, ip treated for 30 mins prior to test followed by amphetamine administration 15 mins prior to test by open field test; format: functional, organism-based
Rattus norvegicus [27] = assay: Antipsychotic activity in rat assessed as reversal of amphetamine-induced hyperlocomotion at 3 mg/kg, ip treated for 60 mins prior to test followed by amphetamine administration 15 mins prior to test by open field test; format: functional, organism-based
Rattus norvegicus [28] = assay: Toxicity in rat assessed as decrease in spontaneous locomotor activity at 1 mg/kg, ip treated for 60 mins by open field test; format: organism-based; details: in vivo, 1 h
[29] = Drug metabolism in human liver microsomes assessed as 2-(2-(4-(hydroxymethyl)phenyl)-6-methylimidazo[1,2-a]pyridin-3-yl)-N,N-dimethylacetamide formation at 20 uM preincubated for 15 mins followed by NADPH addition measured after 60 mins by UPLC-MS/MS analysis; format: ADME; details: 1 h
Rattus norvegicus [30] = assay: Antipsychotic activity in rat assessed as reversal of amphetamine-induced hyperlocomotion at 1 mg/kg, ip treated for 30 mins prior to test followed by amphetamine administration 15 mins prior to test by open field test; format: functional, organism-based
[31] = Plasma elimination half life in human; format: ADME; details: read-out: beta t1/2

SMILES: Cc1ccc2nc(-c3ccc(CO)cc3)c(CC(=O)N(C)C)n2c1
- Drug metabolism [1]: Metabolite_Detected

SMILES: CN(C)C(=O)Cc1c(-c2ccccc2)nc2ccc(F)cn12
- Ki [2]: 130 nM

SMILES: Cc1ccc(-c2nc3ccc(F)cn3c2CC(=O)N(C)C)cc1
- Ki [2]: 25 nM
- Ratio Ki (Rattus norvegicus [3]): 1.8
- Activity [4]: Active
- EC50 [5]: 1270 nM
- fold change (FC) [6]: 1.5
- Drug metabolism [7]: Metabolite_Detected
- Activity (HepG2 [8]): Non-Toxic
- Activity (HepG2 [9]): Non-Toxic
- Activity (HepG2 [10]): Non-Toxic
- Activity (HepG2 [11]): Non-Toxic
- Activity (HepG2 [12]): Non-Toxic
- Activity (HepG2 [13]): Non-Toxic
- Activity (HepG2 [14]): Non-Toxic

SMILES: Cc1ccc(-c2nc3ccc(CO)cn3c2CC(=O)N(C)C)cc1
- Drug metabolism [15]: Metabolite_Detected

SMILES: CN(C)C(=O)Cc1c(-c2ccc(F)c(F)c2)nc2ccc(F)cn12
- Ki [2]: 57.5 to 58 nM

SMILES: CN(C)C(=O)Cc1c(-c2cccc(F)c2)nc2ccc(C(F)(F)F)cn12
- Ki [2]: 730 nM

SMILES: N#CC(C#N)=NNc1cccc(Cl)c1 [CARBONYL CYANIDE M-CHLOROPHENYLHYDRAZONE]
- IC50 at 24 h [16]: 22000 nM
- IC50 at 48 h [17]: 6000 nM
- Activity (HepG2 [10]): Non-Toxic
- Activity (HepG2 [11]): Non-Toxic
- IC50 at 24 h [18]: 9800 nM
- IC50 at 48 h [19]: 7200 nM
- IC50 at 24 h [20]: 36000 nM

SMILES: Cc1ccc2nc(-c3ccc(F)cc3)c(CC(=O)N(C)C)n2c1
- Activity (Rattus norvegicus [21]): Non-Toxic
- Activity (Rattus norvegicus [22]): Toxic
- Activity (Rattus norvegicus [23]): Non-Toxic
- Activity (Rattus norvegicus [24]): Dose-dependent effect
- minimal effective dose (Rattus norvegicus [24]; read-out: MED): 1 mg/kg
- Ki [2]: 59.6 to 60 nM
- Activity [4]: Active
- EC50 [5]: 238 nM
- fold change (FC) [6]: 1.9
- Stability [25]: Stable
- Activity (HepG2 [8]): Non-Toxic
- Activity (HepG2 [9]): Non-Toxic
- Activity (HepG2 [10]): Non-Toxic
- Activity (HepG2 [11]): Non-Toxic
- Activity (HepG2 [12]): Non-Toxic
- Activity (HepG2 [13]): Non-Toxic
- Activity (HepG2 [14]): Non-Toxic
- Activity (Rattus norvegicus [26]): Active
- Activity (Rattus norvegicus [27]): Active
- Activity (Rattus norvegicus [28]): Toxic

SMILES: CN(C)C(=O)Cc1c(-c2ccc(C(F)(F)F)cc2)nc2ccc(F)cn12
- Ki [2]: 68 nM

SMILES: CN(C)C(=O)Cc1c(-c2ccc(F)cc2)nc2ccc(C(F)(F)F)cn12
- Ki [2]: 510 nM

SMILES: Cc1ccc(-c2nc3ccc(C)cn3c2CC(=O)N(C)C)cc1 [ZOLPIDEM]
- Ki [2]: 44 nM
- fold change (FC) [6]: 2.5
- Stability [25]: Stable
- Drug metabolism [29]: Metabolite_Detected
- Activity (HepG2 [8]): Non-Toxic
- Activity (HepG2 [9]): Non-Toxic
- Activity (HepG2 [10]): Non-Toxic
- Activity (HepG2 [11]): Non-Toxic
- Activity (HepG2 [12]): Non-Toxic
- Activity (HepG2 [13]): Non-Toxic
- Activity (HepG2 [14]): Non-Toxic
- Activity (Rattus norvegicus [30]): Active
- half-life [31]: ≤ 2 h

SMILES: CN(C)C(=O)Cc1c(-c2ccc(F)cc2)nc2ccc(F)cn12
- Ki [2]: 55.6 to 56 nM
- Activity [4]: Active
- EC50 [5]: 408 nM
- fold change (FC) [6]: 1.8
- Stability [25]: Stable
- Activity (HepG2 [8]): Non-Toxic
- Activity (HepG2 [9]): Non-Toxic
- Activity (HepG2 [10]): Non-Toxic
- Activity (HepG2 [11]): Non-Toxic
- Activity (HepG2 [12]): Non-Toxic
- Activity (HepG2 [13]): Non-Toxic
- Activity (HepG2 [14]): Non-Toxic

SMILES: CN(C)C(=O)Cc1c(-c2ccc(C(F)(F)F)cc2)nc2ccc(C(F)(F)F)cn12
- Ki [2]: 487 nM

SMILES: CN(C)C(=O)Cc1c(-c2ccc(F)cc2F)nc2ccc(F)cn12
- Ki [2]: 180 nM

SMILES: CN(C)C(=O)Cc1c(-c2cccc(F)c2)nc2ccc(F)cn12
- Ki [2]: 140 nM

SMILES: CN(C)C(=O)Cc1c(-c2ccc(F)cc2F)nc2ccc(C(F)(F)F)cn12
- Ki [2]: 830 nM

— ChEMBL document CHEMBL3872231, “Design, synthesis, and biological evaluation of fluorinated imidazo[1,2-a]pyridine derivatives with potential antipsychotic activity” (Eur J Med Chem, 2016)
